Assay results reported in patent publication US9017644B2, “Methods of treating autoimmune disorders and/or inflammatory disorders” (priority 2008, dated 2015).

Experiments:
[1] = tested on: developing type II collagen arthritis; assay: Rat collagen arthritis model, treatment alone or in combination with etanercept (Example 5); assay type: in vivo; conditions: for % decrease in ankle diameter verses disease control, drug alone: day 17
Text: (§1) Rat collagen induced arthritis is an experimental model of polyarthritis that has been widely used for preclinical testing of numerous anti-arthritic agents. Rat type II collagen arthritis results when rats are immunized against homologous or heterologous type II collagen. […] As used herein “significant” means that p≦0.05. Unless specified as “normal control” or “disease control” reference to “animal” means a rat with developing type II collagen arthritis.
Bovine Type II collagen (Sigma) was diluted with 0.1N acetic acid to a concentration of 4 mg/ml. and emulsified with an equal volume of Freund's incomplete adjuvant (Sigma). Female Lewis rats (Charles River) were randomized by weigh into 10 study groups Table 3 identifies the groups that were used for evaluation of efficacy and Table 4 identifies the groups used for evaluation of toxicity.
Animals were anesthetized and immunized at the base of the tail and two sites on the back on day 0 and day 6. Animals were weighed on days 0, 3, 9-24. […] Treatment was administered either alone or in combination with etanercept, (1 mg/kg) dosed subcutaneously on days 9, 12 and 15. […] The remaining 4 animals were sacrificed for necropsy on day 16.

[2] = tested on: developing type II collagen arthritis; assay: Rat collagen arthritis model, dose responsive efficacy, IV or SC 2x/week (Example 4); assay type: in vivo; conditions: IV 2x/week, read-out: average ED50 value for efficacy (AUC+Final Paw Weight)
Text: as §1
(§2) Bovine Type II collagen (Sigma) was diluted with 0.1N acetic acid to a concentration of 4 mg/ml. and emulsified with an equal volume of Freund's incomplete adjuvant (Sigma).
(§3) The rats were anesthetized and given collagen injections spread over 3 subcutaneous sites on back on day 0 and day 6. […] Rats were weighed on days 0, 3, 6, and 9-18 of the study, and caliper measurements of ankles were taken every day beginning on day 9 (or day 0 of arthritis). After final body weight measurement on day 18, animals were euthanized, blood was drawn for serum (for clinical chemistries) and CBC analysis and tissues were collected. No clinical chemistry or CBC analysis was done for groups 5s and 12s, however these groups were sampled for drug levels for pharmacokinetic analysis.

[3] = Lewis, rat, in vivo, 18 day
Text: as §3
Complete Blood Counts (CBC) and Clinical Chemistries were evaluated for each group.

[4] = Observation on high dose MTX dosing preparation; assay type: physicochemical; conditions: 0.75 mg/kg dose preparation
[5] = tested on: developing type II collagen arthritis; assay: Rat collagen arthritis model, prophylactic IV treatment 3x/week, day 0-16 (Example 3); assay type: in vivo
Text: as §1, §2
The rats were anesthetized and given collagen injections spread over 3 subcutaneous sites on back on day 0 and day 6.

[6] = batches 70 mg/kg, methotrexate 0.2 mg/kg, FIG. 5

| Compound | % decrease in ankle diameter verses disease control, drug alone ([1]; 0.25 mg/kg PO 2x/week) [%] | decreases in ankle diameter from disease control, alone or in combination with etanercept ([1]; ATI-101 5, 20 and 65 mg/kg, MTX 0.25 mg/kg) | ED50 [2] [mg/kg] | therapeutic index, considering bone marrow suppression at 0.5 mg/kg ([3]; 0.5 mg/kg) | dose value for life threatening toxicity (bone marrow suppression) ([3]; iv) [mg/kg] | behaviour of high dose preparation in solution [4] | inhibition of ankle diameter AUC as compared to disease controls ([5]; Batch 1 and Batch 2 70 mg/kg, MTX 0.2 mg/kg, IV 3x/week, 17 day study) [%] | inhibition of final paw weights as compared to disease controls ([5]; Batch 1 and Batch 2 70 mg/kg, MTX 0.2 mg/kg, IV 3x/week, day 17) [%] | ankle cartilage damage, representative photomicrograph [5, 6] | ankle pannus and bone destruction, representative photomicrograph [5, 6] | ankle synovitis, representative photomicrograph [5, 6] | % decrease in ankle diameter verses disease control, drug alone ([1]; 1 mg/kg SC days 9, 12, 15) [%] |
| --- | --- | --- | --- | --- | --- | --- | --- | --- | --- | --- | --- | --- |
| CN(Cc1cnc2nc(N)nc(N)c2n1)c1ccc(C(=O)N[C@@H](CCC(=O)O)C(=O)O)cc1 [MTX, Methotrexate] | 52 | Significant decreases | 0.25 | less than 2 | 0.75 | did not remain completely in solution | 54 | 46 | minimal | minimal | moderate |  |
| etanercept |  |  |  |  |  |  |  |  |  |  |  | 37 |
